Assay results: BindingDB's records for patent US20240140962 (Medshine Discovery, 2024)

Biological target: Serine/threonine-protein kinase PLK1 (Homo sapiens, UniProt P53350)
Assay: Evaluation of PLK1 Kinase Activity In Vitro
Experimental: The 33P isotope-labeled kinase activity assay (Reaction Biology Corp) was used to determine the IC50 value to evaluate the inhibitory ability of the test compound to human PLK1 protein kinase.Buffer conditions: 20 mM HEPES (pH 7.5), 10 mM MgCl2, 1 mM EGTA, 0.01% Brij35, 0.02 mg/ml BSA, 0.1 mM Na3VO4, 2 mM DTT, 1% DMSOTest steps: At room temperature, the compounds to be tested were dissolved in DMSO to prepare a 10 mM solution for use. The substrate Casein was dissolved in a freshly prepared buffer (with a final concentration of 20 μM), and the tested PLK1 kinase (with a final concentration of 12 nM) was added thereto and mixed well. The acoustic wave pipetting system Echo 550 was used to add the mother solution of the test compound dissolved in DMSO to the above mixed reaction mixture according to the set final concentration gradient (the highest final concentration was 1 μM, 3-fold dilution, 10 gradients). After incubation at room temperature for 20 minutes, 33P-ATP (30 μM) was added, and after incubation at room temperature for 120 minutes, the reaction mixture was spotted on P81 ion exchange filter paper (Whatman #3698-915). After the filter paper was repeatedly washed with 0.75% phosphoric acid solution, the radioactivity of the phosphorylated substrate remaining on the filter paper was measured.

Serine/threonine-protein kinase PLK1, sequence (P53350 whole entry): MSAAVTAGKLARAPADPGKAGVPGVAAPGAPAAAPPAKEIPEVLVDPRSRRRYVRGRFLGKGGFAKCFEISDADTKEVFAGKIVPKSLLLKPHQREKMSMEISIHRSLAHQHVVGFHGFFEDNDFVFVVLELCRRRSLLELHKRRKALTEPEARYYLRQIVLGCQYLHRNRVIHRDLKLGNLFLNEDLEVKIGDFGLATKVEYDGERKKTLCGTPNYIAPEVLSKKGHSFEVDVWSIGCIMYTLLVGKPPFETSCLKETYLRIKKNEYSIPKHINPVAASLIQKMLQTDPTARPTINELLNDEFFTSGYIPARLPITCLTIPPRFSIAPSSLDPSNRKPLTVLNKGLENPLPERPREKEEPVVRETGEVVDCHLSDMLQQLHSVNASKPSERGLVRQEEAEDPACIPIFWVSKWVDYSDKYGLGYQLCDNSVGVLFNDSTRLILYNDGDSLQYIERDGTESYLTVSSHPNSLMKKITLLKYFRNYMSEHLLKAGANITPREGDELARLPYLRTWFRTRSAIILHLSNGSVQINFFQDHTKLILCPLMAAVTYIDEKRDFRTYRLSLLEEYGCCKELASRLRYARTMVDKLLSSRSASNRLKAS

SMILES	IC50 [nM]
CCOc1sc(C(N)=O)c2c1-c1nc(Nc3cc(N4CCN(C)CC4)ccc3OC(F)(F)F)ncc1CC2 [US20240140962, Compound 2]	4.2
COc1nnc(N2CCN(C)CC2)cc1Nc1ncc2c(n1)-c1c(SC)sc(C(N)=O)c1CC2 [US20240140962, Compound 17]	5.9
CN1CCN(c2ccc(OC(F)(F)F)c(Nc3ncc4c(n3)-c3c(C5CC5)sc(C(N)=O)c3CC4)c2)CC1 [US20240140962, Compound 16]	5.3
CN1CCN(c2ccc(OC(F)(F)F)c(Nc3ncc4c(n3)-c3c(-c5ccco5)sc(C(N)=O)c3CC4)c2)CC1 [US20240140962, Compound 20]	2.8
CSc1sc(C(N)=O)c2c1-c1nc(Nc3cc(N4CCN(C)CC4)ccc3OC(F)(F)F)ncc1CC2 [US20240140962, Compound 1]	4.4
CSc1sc(C(N)=O)c2c1-c1nc(Nc3cc(N4CCN(CCO)CC4)ccc3OC(F)(F)F)ncc1CC2 [US20240140962, Compound 8]	1.7
CSc1sc(C(N)=O)c2c1-c1nc(Nc3cc(N4CCNCC4)ccc3OC(F)(F)F)ncc1CC2 [US20240140962, Compound 7]	3
CN1CCN(c2ccc(OC(F)(F)F)c(Nc3ncc4c(n3)-c3csc(C(N)=O)c3CC4)c2)CC1 [US20240140962, Compound 12]	4
